Tests used:
[1] = biological target: firefly luciferase (Photinus pyralis, UniProt P08659); conditions: strong inhibitor of the luciferase; read-out: IC50 as inhibitor of light production; cited from earlier work
[2] = system: firefly luciferase-luciferin reaction; assay: light production and light duration in vitro (test tube mixture, photos analysed by Image J); format: biochemical; conditions: for light duration extended by: PLGA-LH2 1 mM, CS-CoA 625 μM
[3] = system: living watercress plant; assay: light emission in living watercress plant after LIN/PBIN infiltration of nanoparticles; format: in vivo, watercress (Nasturtium officinale); conditions: 1-2 hours compared to 30 minutes incubation of SNP-Luc (LIN) before free luciferin 0.1 mM
Experimental: Leaf discs of spinach plants 3 week-olds were infiltrated with 30 mM HEPES buffer (pH 7.4) via PBIN at speed of 0.4 bar/s and cell membranes were stained with FM 464 fluorescent dye (red).
SNP-Luc was infiltrated by LIN 1 h in advance, and PLGA-LH alone or PLGA-LH and CS-CoA were infused into a watercress plant by PBIN. […] To extend the illumination time, the third nanoparticle class, CS-CoA, was co-infiltrated with PLGA-LH by PBIN. […] In FIG. 3E, a and b represent concentration of SNP-Luc (μM) and concentration of PLGA-LH2 (mM), respectively. […] Maximum number of photons/sec was obtained from the first photo (analyzed by Image J). […]
Infiltration of nanoparticles in living plants. […] The pressure was monitored by digital hydronic manometer (Dwyer instruments, IN, USA). […]
Estimation of photon numbers from light emitting plants. The power of LED light was first measured at 12.70 cm away using a photo-detector (λ=530 nm, detector surface area=1 cm^2) (PM100, ThorLabs, NJ, USA). The number of photons incident on the photo-detector was determined using the measured power (10 nW) divided by the energy of a single photon at 530 nm, given by the equation below
An image of the LED light was taken at 68.58 cm of distance with 1/1000 s exposure to avoid saturation of pixels and converted into quantitative values using ImageJ (Mean value=0.016).

firefly luciferase, sequence (P08659 whole entry): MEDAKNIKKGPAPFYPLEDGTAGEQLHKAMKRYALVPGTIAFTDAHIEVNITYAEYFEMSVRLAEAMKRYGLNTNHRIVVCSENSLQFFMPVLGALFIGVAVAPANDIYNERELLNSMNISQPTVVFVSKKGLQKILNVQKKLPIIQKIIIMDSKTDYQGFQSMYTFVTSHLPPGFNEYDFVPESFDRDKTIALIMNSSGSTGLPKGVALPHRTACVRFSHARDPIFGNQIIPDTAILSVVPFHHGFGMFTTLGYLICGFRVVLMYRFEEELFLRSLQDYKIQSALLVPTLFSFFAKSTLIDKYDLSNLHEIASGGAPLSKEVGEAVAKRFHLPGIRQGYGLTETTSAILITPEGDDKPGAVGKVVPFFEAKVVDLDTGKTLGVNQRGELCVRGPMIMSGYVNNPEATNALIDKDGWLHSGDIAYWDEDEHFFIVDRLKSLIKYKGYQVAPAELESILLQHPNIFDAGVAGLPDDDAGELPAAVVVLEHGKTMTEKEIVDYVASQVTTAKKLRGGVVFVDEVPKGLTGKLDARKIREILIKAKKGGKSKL

Row | Compound | IC50 [1] [nM] | light duration extended by ([2]; 200 nM SNP-Luc) [h] | light duration extended by ([2]; 4 μM SNP-Luc) [h] | light duration compared with free luciferase ([2]; 1 mL mixture, 12 nM luciferase, 100 μM luciferin, 100 μM ATP) | initial number of photons, times higher [3] [times]
1 | Nc1ncnc2c1ncn2C1OC(COP(=O)(O)OC(=O)c2csc(-c3nc4ccc(O)cc4s3)n2)C(O)C1O (centres unmarked) [dehydroluciferyl-adenylate] | 5 |  |  |  | 
2 | SNP-Luc: firefly luciferase immobilized on 7 nm GPTS-PEG amine silica nanoparticles |  | 22 | 6 | longer light duration than that of free luciferase | 4 to 7
